In patent US6194465A, “Benzamide therapeutics for the treatment of inflammatory bowel disease” (priority 1999, dated 2001):
“Also recorded” adds a separate entry of the source.

Assays:
TNBS-induced colitis = test: TNBS model of IBD, Compound A given before TNBS (morphology, tissue weight); type: in vivo, Male Sprague-Dawley rats
Description: The trinitrobenzene sulphonic acid ("TNBS") model is one of the standard IBD models used in IBD discovery research, and has been extensively evaluated in rodents. A single enema of TNBS induces a prolonged colonic inflammatory response (up to several weeks) that is transmural and is accompanied by oxidative damage as evidenced by an increase in myeloperoxidase ("MPO") activity. Furthermore, the inflammation is characterized by discrete areas of acute necrosis, inflammation and muscle thickening. Agents with anti-inflammatory effects in patients with IBD show efficacy in this model. Although the mechanism by which TNBS induces an inflammatory response is unknown, it is thought to have an immunological basis.
(§1) Male Sprague-Dawley rats (200-250 g) were housed in standard cages (2 per cage) and fed rat chow and tap water ad libitum. After an overnight fast, rats were brought into the laboratory and randomized into treatment groups. Colitis was induced by intrarectal administration of 0.5 ml of TNBS solution (50 mg/kg in 50% ethanol) using a 1 ml syringe attached to a 5 cm polyethylene catheter. Control animals received saline (0.9%) or a 1 % methyl cellulose suspension at identical time points.
Three days after TNBS administration, the rats were sacrificed and the colons excised and opened longitudinally.
The weights of each 5 cm colonic segment were also recorded to assess inflammatory induced edema.
(§2) For PO (oral) dosing, Compound A was administered by oral gavage 30 mg/kg as a 1% carboxy methyl cellulose ("CMC") suspension 1 hour prior to the administration of TNBS. Control rats were given CMC only. For IV (intravenous) dosing, Compound A was administered 30 mg/kg by tail vein injection in a 75% PEG/25 % water solution 1 hour prior to administration of TNBS. Control rats were given an injection of 75% PEG/25 % water only. Six rats were dosed for each route of administration.
An additional study was conducted varying the amount of Compound A administered to the rats. Doses of 10 mg/kg, 30mg/kg, and 70 mg/kg were given by oral administration.
A study was run to determine whether or not the effectiveness of Compound A was dependent upon when it was administered relative to the TNBS administration.
Groups of rats (N=11/group) were administered increasing doses of Compound A (0-90 mg/kg-po) 1 hour prior to TNBS enema. In addition to macroscopic assessment, the wet weight of the tissue was also measured as an additional secondary efficacy parameter.

[1] = system: Myeloperoxidase (MPO) activity; test: MPO activity of colon tissue in TNBS model (IV dosing); type: in vivo, Male Sprague-Dawley rats
Method: as §1
Myeloperoxidase ("MPO") activity is measured as an index of the intensity of the inflammatory response. In order to determine the MPO activity, a blind study of 300 mg samples of colon tissue were analyzed. This assay uses the spectrophotometric method of Castro et al.
as §2
MPO activity measurements were performed only for samples from the IV administration.

[2] = system: TNBS-induced colonic tissue damage; test: TNBS model, dosing after TNBS treatment (morphology, MPO, wet weight); type: in vivo, rats
Method: As a follow-on set of experiments we investigated the effects of multiple doses of Compound A administered after TNBS treatment.
Experimental conditions were similar to those described above except that rats were given either Compound A (30 mg/kg PO) or vehicle, administered 4, 8 and 24 hours after TNBS treatment for at total of 3 doses.
In another series of experiments to investigate the duration of action of Compound A was designed to advance previous observations and determine whether a single dose of 90 mg/kg po Compound A given either 4, 8, or 24 hrs after the TNBS enema would reduce the colonic damage.
Experimental conditions were similar to those described above except that rats were given a single large dose of Compound A (90 mg/kg PO) or vehicle either 4, 8 or 24 hours after TNBS treatment.

SK-N-MC cells = test: TNF-α induced flux of reactive oxygen species (DCF fluorescence); type: cell-based; settings: 100 μM test compound, TNF-α 3.0 ng/mL
Description: Oxidative stress agents (OSA) are thought to be involved in cell death in IBD and are key initiator in the cascade of events leading to apoptosis. The purpose of this study is to evaluate the effect of Compound A on cytokine-induced OSA flux.
To visualize OSA, the dye dihydrodichlorofluorescein diacetate is used. This non-fluorescent dye is taken up by cells and deacetylated to its non-fluorescent congener dihydrodichlorofluorescein (H2 DCF), which is trapped within cells. Reactive oxygen species ("ROS") react with H2 DCF, converting it to the highly fluorescent DCF. DCF fluorescence can be measured spectrofluorometrically and can also be visualized in intact cells using fluorescent microscopy.
SK-N-MC cells (American Type Culture Collection, Rockville, Md.) were plated at 250,000 cells/well in 24-well Corning plates. Following plating, the cells were maintained in retinoic acid medium (5 μM) for five days and then treated with at test compound at 100 μM for 1 hour prior to TNF-α (3.0 ng/mL) treatment. […] Following incubation, cultures were read in a cytofluorometer at 485-530 nm wavelength to detect increased DCF formation. Relative fluorescence units (RFU) values for the respective treatment conditions were compared. In this assay, higher fluorescence readings indicate ROS production. Thus, reductions in fluorescence indicates reduction in ROS production.

bcl-2 = test: TNF-α induced reduction in bcl-2 (ELISA); type: cell-based; settings: Compound A 100 μM (printed 100 EM); TNF-α 0.3 or 3.0
Method: Cytokine mediated apoptosis or programmed cell death is believed to be involved in a number of diseases including IBD. Reductions in bcl-2 are a major signal in initiation of the apoptotic cascade (see Jourd'heuil et al., J. Clin Gastroenterol. 25(Suppl):S61-S72 (1997)). The purpose of this study is to investigate the effects of Compound A on bcl-2 protein levels in a cellular model of cytokine mediated apoptosis.
SK-N-MC cells (American Type Culture Collection, Rockville, Md.) were plated at 500,000 cells/plate and treated with retinoic acid ("RA") (5 μM) for 5 days. Following RA treatment, the cells were incubated with Compound A (100 μM) for 1 hour. Cells were then treated with increasing concentrations of TNF-α (0, 0.3 and 3 ng/mL) for 6 h. The cells were harvested and lysed and bcl-2 was measured in the lysate using an ELISA assay (Boehringer Manheim). Quantification of bcl-2 was based on a standard curve and results are expressed as units/mL of bcl-2 in the sample. Results represent mean ±SE for 3 separate cultures.

[3] = 0-90 mg/kg po, 1 hour prior to TNBS
[4] = 30 mg/kg PO at 4, 8 and 24 hours after TNBS

CC(=O)Nc1ccc(C(=O)NC(C)(C)C)cc1 [Compound A, N-tert-butyl-4-acetamidobenzamide]
colonic morphological score (in words) (TNBS-induced colitis; [3]): dose-dependent reduction | wet weight of colonic segments (in words) (TNBS-induced colitis; [3]): dose-dependent reduction | protective effects, 10 mg/kg (TNBS-induced colitis; 10 mg/kg oral): minimal protective effects | severity of IBD symptoms / protection from TNBS damage, IV (TNBS-induced colitis; 30 mg/kg IV, 1 hour before TNBS): decreases the severity of IBD symptoms; also recorded: protected from the damage induced by TNBS; also recorded: greater protection seen following IV administration; also recorded: intravenous administration of Compound A also provides protection | protective effects, 30 mg/kg (TNBS-induced colitis; 30 mg/kg oral): increased protective effects | severity of IBD symptoms / protection from TNBS damage, PO (TNBS-induced colitis; 30 mg/kg po, 1 hour before TNBS): decrease the severity of IBD symptoms; also recorded: protected from the damage induced by TNBS | protection, administered 120 mins before TNBS (TNBS-induced colitis; 30 mg/kg po, 120 mins pretreatment): less protective compared to the 60 min pretreatment period | protective effects, 70 mg/kg (TNBS-induced colitis; 70 mg/kg oral): strongest protective effect | protection, administered 1 hour before TNBS (TNBS-induced colitis; 1 hour (60 min) pretreatment): best protection | tissue weight (in words) (TNBS-induced colitis; IV and PO, 30 mg/kg): suggest protection, but not as convincingly as the morphology and MPO activity results | activity in protecting colon tissue, summary (in words) (TNBS-induced colitis; IV or PO): good activity in protecting colon tissue from damage | protection, administered 240 mins before TNBS (TNBS-induced colitis; single dose, 240 mins pretreatment): little protection against morphological changes | protection from TNBS insult as measured by MPO activity (in words) ([1]; IV): provided protection from the TNBS insult | MPO Activity ([1]; IV treatment, 30 mg/kg, TNBS model): 1.77 ± 0.53 units/mg | MPO activity, 3 doses after TNBS (in words) [2, 4]: decrease in MPO activity | colonic tissue damage, 3 doses after TNBS [2, 4]: significantly reduced | tissue wet weight, 3 doses after TNBS (in words) [2, 4]: reduction in tissue wet weight | inflammatory damage, single dose after TNBS ([2]; 90 mg/kg po, 4, 8 or 24 hours after TNBS): prevents inflammatory damage; also recorded: less efficacy than the 3 dose (30 mg/kg) oral regimen | ROS induction by TNF-α (SK-N-MC cells): significantly reduced these effects | bcl-2 reduction induced by TNF-α (bcl-2): prevented bcl-2 reduction
